Laboratory results as given in patent US3991204A, “Method of using benzopyrans as antiparasitic agents” (American Cyanamid Company, priority 1975, dated 1976).
Where “and” joins values, the source holds several entries; their conditions need not be identical. Equal values may be shown once.

Experiments:
[1] = test system: Trichostrongylus colubriformis; test: Evaluation against Trichostrongylus colubriformis in the Mongolian gerbil; type: in vivo, Trichostrongylus colubriformis (host: Mongolian gerbil)
Method: Evaluation of 3',4'-Dichloro-4-hydroxy-2-oxo-2H-1-benzopyran-3-carboxanilide against Trichlostrongylus colubriformis in the Mongolian Gerbil Monogolian gerbils are inoculated with 2000 T. colubriformis larvae each. Fourteen to 94 days post inoculation the gerbils are treated with the appropiate drug level diet for 6 days. For single oral dose administration the compound is thoroughly mixed with 0.1 percent agar and orally intubated at the required level. After treatment, 24 hour fecal outputs for 3 days are collected from each animal and examined for passage of parasites. Three days post treatment the gerbils are necropsied and examined for parasites. Percent efficacy is calculated using the formula: [formula]

Hymenolepis nana = test: Efficacy against Hymenolepis nana in mice (absence or presence of parasites); type: in vivo, Hymenolepis nana (host: Swiss Webster mice); design: key: Active; Inactive
Method: (§1) Efficacy of 4-Hydroxy-2-oxo-2H-1-benzopyran-3-carboxanilide derivatives against various helminths in mice
(§2) Six weeks old Swiss Webster mice are orally inoculated with Nematospiroides dubius, Hymenolepis nana and Aspicularis tetraptera. Eighteen days postinoculation the mice are treated with the appropriate drug diet level for 7 days. For single oral dose administration the compound is thoroughly mixed with 0.1 percent agar and orally intubated at the required dosage 22 days postinfection. 10-15,000 Ascaris suum infective eggs are administered to mice after 1 day on diet medication or 3 days prior to single oral dose administration. Determination of efficacy is done by counting all the N. dubius in treated mice versus the control average. For H. nana and A. tetraptera the absence or presence of these parasites in treated mice is the criterior for determining activity. For A. suum activity the following criterion was used. Reduction or elimination of lung pathology and the total number of lung larvae from treated animals was compared to lung larvae recovered from controls.

[2] = test system: Trichostrongylus vitrinus; test: Efficacy against naturally occurring parasitic infestation in sheep, Trichostrongylus vitrinus male; type: in vivo, Trichostrongylus vitrinus (host: lambs); conditions: naturally infected sheep, single oral dose 100 mg/kg
Method: (§3) Efficacy of 3',4'-Dichloro-4-hydroxy-2-oxo-2H-1-benzopyran-3 -carboxanilideagainst Naturally Occurring Parasitic
(§4) Lambs naturally infected with a number of parasitic species are treated with 100 mg/kg of body weight with the compound under tested administration as a single oral dose. After treatment, 24 hour fecal outputs for 3 days are collected from each animal and examined for the passage of parasites. Three days post treatment the lambs are necropsied and examined for parasites. Percent efficacy is calculated using the formula: [formula]

Bunostomum = test: Efficacy against naturally occurring parasitic infestation in sheep, Bunostomum; type: in vivo, Bunostomum (host: lambs); conditions: naturally infected sheep, single oral dose 100 mg/kg
Method: as §3, §4

Ascaris suum = test: Efficacy against Ascaris suum in mice (lung pathology and lung larvae versus controls); type: in vivo, Ascaris suum (host: Swiss Webster mice); design: key: Active; Inactive
Method: as §1, §2

Aspicularis tetraptera = test: Efficacy against Aspicularis tetraptera in mice (absence or presence of parasites); type: in vivo, Aspicularis tetraptera (host: Swiss Webster mice); design: key: Active; Inactive
Method: as §1, §2

Cooperia punctata = test: Efficacy against naturally occurring parasitic infestation in sheep, Cooperia punctata; type: in vivo, Cooperia punctata (host: lambs); conditions: naturally infected sheep, single oral dose 100 mg/kg
Method: as §3, §4

Nematospiroides dubius = test: Efficacy against Nematospiroides dubius in mice (worm count in treated mice versus control average); type: in vivo, Nematospiroides dubius (host: Swiss Webster mice); design: key to % Eff. N.d. (class symbol): Active; Inactive; conditions: for inhibition in vivo at 0.05 % / inhibition in vivo at 0.1 %: po, 168 h; for inhibition in vivo at 0.05 %: drug diet 0.05% for 7 days; for inhibition in vivo at 0.1 %: drug diet 0.1% for 7 days
Method: as §1, §2

Haemonchus contortus = test: Evaluation (efficacy) test in experimentally inoculated sheep, Haemonchus contortus; type: in vivo, Haemonchus contortus (host: lambs); conditions: intraruminal dose 50 mg/kg
Method: (§5) Evaluation (Efficacy) Test in Sheep
(§6) Lambs are experimentally inoculated with Haemonchus contortus (H.c.), Trichostrongylus axei (T.a.), Ostertagia circumcincta (O.c) and Trichostrongylus colubriformis (T.c.) species. At patency of the parasites the lambs are treated with 50 mg/kg of body weight with the compound under test administered as an intraruminal injection in 0.2 percent agar. Three days post treatment treated lambs and similary inoculated controls are necropsied and examined for parasites. Percent efficacy is calculated by comparing the average worm burden in the treated group with the average worm burden in the control group.

Ostertagia circumcincta = test: Evaluation (efficacy) test in experimentally inoculated sheep, Ostertagia circumcincta; type: in vivo, Ostertagia circumcincta (host: lambs); conditions: intraruminal dose 50 mg/kg
Method: as §5, §6

[3] = test system: Trichostrongylus colubriformis; test: Efficacy against naturally occurring parasitic infestation in sheep, Trichostrongylus colubriformis male; type: in vivo, Trichostrongylus colubriformis (host: lambs); conditions: naturally infected sheep, single oral dose 100 mg/kg
Method: as §3, §4

Trichostrongylus axei = test: Evaluation (efficacy) test in experimentally inoculated sheep, Trichostrongylus axei; type: in vivo, Trichostrongylus axei (host: lambs); conditions: intraruminal dose 50 mg/kg
Method: as §5, §6

[4] = test system: Trichostrongylus colubriformis; test: Evaluation (efficacy) test in experimentally inoculated sheep, Trichostrongylus colubriformis; type: in vivo, Trichostrongylus colubriformis (host: lambs); conditions: intraruminal dose 50 mg/kg
Method: as §5, §6

[5] = Heligmosomoides polygyrus, read-out: % Eff. N.d.

Which results are given for O=C(Nc1ccc(Cl)c(Cl)c1)c1c(O)c2ccccc2oc1=O [Example 1, 3',4'-Dichloro-4-hydroxy-2-oxo-2H-1-benzopyran-3-carboxanilide]?
% Efficacy ([1]; 0.05% drug in feed × 6 Days): 82%; % Efficacy ([1]; single oral dose 100 mg/kg): 40%; % Efficacy ([1]; single oral dose 500 mg/kg): 100%; H.n. activity (Hymenolepis nana; drug diet 0.05% for 7 days): i; H.n. activity (Hymenolepis nana; drug diet 0.1% for 7 days): A; H.n. activity (Hymenolepis nana; single oral dose 100 mg/kg): i; H.n. activity (Hymenolepis nana; single oral dose 500 mg/kg): i; H.n. activity (Hymenolepis nana; single oral dose 1000 mg/kg): i; % Efficacy T.v. Male [2]: 100% and 79%; % Efficacy Bun. (Bunostomum): 100%; A.s. activity (Ascaris suum; drug diet 0.05% for 7 days): i; A.s. activity (Ascaris suum; drug diet 0.1% for 7 days): i; A.s. activity (Ascaris suum; single oral dose 100 mg/kg): i; A.s. activity (Ascaris suum; single oral dose 500 mg/kg): A; A.s. activity (Ascaris suum; single oral dose 1000 mg/kg): A; A.s. activity (Ascaris suum; single oral dose 2000 mg/kg): A; A.t. activity (Aspicularis tetraptera; drug diet 0.1% for 7 days): A; A.t. activity (Aspicularis tetraptera; single oral dose 100 mg/kg): A; A.t. activity (Aspicularis tetraptera; single oral dose 500 mg/kg): A; A.t. activity (Aspicularis tetraptera; single oral dose 1000 mg/kg): i; % Efficacy C.p. (Cooperia punctata): 100%; inhibition in vivo at 0.05 % (Nematospiroides dubius; [5]): 85%; inhibition in vivo at 0.1 % (Nematospiroides dubius; [5]): 100%; inhibition in vivo at 2000 mg/kg (Nematospiroides dubius; Heligmosomoides polygyrus, single oral dose 2000 mg/kg, read-out: % Eff. N.d.): 55%; % Eff. N.d. (class symbol) (Nematospiroides dubius; single oral dose 100 mg/kg): i; % Eff. N.d. (class symbol) (Nematospiroides dubius; single oral dose 500 mg/kg): i; % Eff. N.d. (class symbol) (Nematospiroides dubius; single oral dose 1000 mg/kg): i; % Efficacy H.c. (Haemonchus contortus): 100%; % Efficacy O.c. (Ostertagia circumcincta): 86%; % Efficacy T.c. Male [3]: 85% and 61%; % Efficacy T.a. (Trichostrongylus axei): 0%; % Efficacy T.c. [4]: 35%

For O=C(Nc1cccc(Cl)c1)c1c(O)c2ccccc2oc1=O [Example 2], which H.n. activity (Hymenolepis nana; drug diet 0.05% for 7 days) is on record?
The H.n. activity was “i”.

And the H.n. activity (Hymenolepis nana; drug diet 0.1% for 7 days)?
The H.n. activity was “A”.

What about the A.s. activity (Ascaris suum; drug diet 0.05% for 7 days) of the same molecule?
The A.s. activity was “i”.

And the A.s. activity (Ascaris suum; drug diet 0.1% for 7 days)?
Its A.s. activity is “i”.

And the A.t. activity (Aspicularis tetraptera; drug diet 0.05% for 7 days)?
The A.t. activity was “i”.

And the A.t. activity (Aspicularis tetraptera; drug diet 0.1% for 7 days)?
Its A.t. activity is “A”.

What about the inhibition in vivo at 0.05 % (Nematospiroides dubius; [5]) of the same molecule?
The inhibition in vivo at 0.05 % was 46%.

And the inhibition in vivo at 0.1 % (Nematospiroides dubius; [5])?
Its inhibition in vivo at 0.1 % is 65%.

O=C(Nc1ccc(F)cc1)c1c(O)c2ccccc2oc1=O [Example 3] was tested. Which H.n. activity (Hymenolepis nana; drug diet 0.1% for 7 days) did it give?
The H.n. activity was “A”.

What about the A.s. activity (Ascaris suum; drug diet 0.1% for 7 days) of the same molecule?
The A.s. activity was “i”.

What about the A.t. activity (Aspicularis tetraptera; drug diet 0.1% for 7 days) of the same molecule?
The A.t. activity was “i”.

What about the inhibition in vivo at 0.1 % (Nematospiroides dubius; [5]) of the same molecule?
The inhibition in vivo at 0.1 % was 54%.

Which results are given for O=C(Nc1cccc(F)c1)c1c(O)c2ccccc2oc1=O [Example 4]?
H.n. activity (Hymenolepis nana; drug diet 0.1% for 7 days): i; A.s. activity (Ascaris suum; drug diet 0.1% for 7 days): i; A.t. activity (Aspicularis tetraptera; drug diet 0.1% for 7 days): i; inhibition in vivo at 0.1 % (Nematospiroides dubius; [5]): 77%

How did the H.n. activity (Hymenolepis nana; drug diet 0.1% for 7 days) turn out when O=C(Nc1ccccc1F)c1c(O)c2ccccc2oc1=O [Example 5] was run?
The H.n. activity was “i”.

And the A.s. activity (Ascaris suum; drug diet 0.1% for 7 days)?
The A.s. activity was “i”.

And the A.t. activity (Aspicularis tetraptera; drug diet 0.1% for 7 days)?
Its A.t. activity is “i”.

What about the inhibition in vivo at 0.1 % (Nematospiroides dubius; [5]) of the same molecule?
Its inhibition in vivo at 0.1 % is 66%.

What does the source list for O=C(Nc1ccc(F)cc1F)c1c(O)c2ccccc2oc1=O [Example 6]?
H.n. activity (Hymenolepis nana; drug diet 0.1% for 7 days): i; A.s. activity (Ascaris suum; drug diet 0.1% for 7 days): i; A.t. activity (Aspicularis tetraptera; drug diet 0.1% for 7 days): A; inhibition in vivo at 0.1 % (Nematospiroides dubius; [5]): 94%

Which H.n. activity (Hymenolepis nana; drug diet 0.1% for 7 days) does the source give for O=C(Nc1cc(F)ccc1F)c1c(O)c2ccccc2oc1=O [Example 7] here?
Its H.n. activity is “i”.

What about the A.s. activity (Ascaris suum; drug diet 0.1% for 7 days) of the same molecule?
The A.s. activity was “i”.

What about the A.t. activity (Aspicularis tetraptera; drug diet 0.1% for 7 days) of the same molecule?
The A.t. activity was “i”.

And the inhibition in vivo at 0.1 % (Nematospiroides dubius; [5])?
The inhibition in vivo at 0.1 % was 41%.

Which H.n. activity (Hymenolepis nana; drug diet 0.05% for 7 days) does the source give for O=C(Nc1ccc(Cl)cc1Cl)c1c(O)c2ccccc2oc1=O [Example 8] here?
The H.n. activity was “i”.

And the H.n. activity (Hymenolepis nana; drug diet 0.1% for 7 days)?
Its H.n. activity is “i”.

What about the A.s. activity (Ascaris suum; drug diet 0.05% for 7 days) of the same molecule?
Its A.s. activity is “i”.

What about the A.s. activity (Ascaris suum; drug diet 0.1% for 7 days) of the same molecule?
Its A.s. activity is “i”.

And the A.t. activity (Aspicularis tetraptera; drug diet 0.05% for 7 days)?
The A.t. activity was “A”.

What about the A.t. activity (Aspicularis tetraptera; drug diet 0.1% for 7 days) of the same molecule?
The A.t. activity was “A”.

And the inhibition in vivo at 0.05 % (Nematospiroides dubius; [5])?
Its inhibition in vivo at 0.05 % is 94%.

And the inhibition in vivo at 0.1 % (Nematospiroides dubius; [5])?
The inhibition in vivo at 0.1 % was 100%.
